Measurements from ChEMBL document CHEMBL4219152, “Design, synthesis, biological evaluation, homology modeling and docking studies of (E)-3-(benzo[d][1,3]dioxol-5-ylmethylene) pyrrolidin-2-one derivatives as potent anticonvulsant agents” (Bioorg Med Chem Lett, 2018).
Calls of active or inactive are those of the source. No cut-off for these calls is given here.

How the values were obtained:
Mus musculus [1] = assay: Anticonvulsant activity in Kunming mouse assessed as protection against subcutaneously injected metrazol-induced seizures at 300 mg/kg, ip after 4 hrs; type: functional, organism-based
Mus musculus [2] = assay: Anticonvulsant activity in ip dosed Kunming mouse assessed as minimum dose required to protect maximal electroshock-induced seizures in mouse measured after 4 hrs; type: functional; settings: read-out: MED
Mus musculus [3] = assay: Anticonvulsant activity in Kunming mouse assessed as protection against subcutaneously injected metrazol-induced seizures at 300 mg/kg, ip measured after 0.5 hrs; type: functional, organism-based
Mus musculus [4] = species on record: Mus musculus; assay: Neurotoxicity in Kunming mouse assessed as motor impairment by measuring reduction in time spent on rotarod after 0.5 hrs by rotarod test; type: toxicity, organism-based; settings: in vivo
Mus musculus [5] = assay: Anticonvulsant activity in ip dosed Kunming mouse assessed as minimum dose required to protect maximal electroshock-induced seizures in mouse measured after 0.5 hrs; type: functional; settings: read-out: MED
Mus musculus [6] = species on record: Mus musculus; assay: Neurotoxicity in Kunming mouse assessed as motor impairment by measuring reduction in time spent on rotarod after 4 hrs by rotarod test; type: toxicity, organism-based; settings: in vivo
Mus musculus [7] = assay: Anticonvulsant activity in ip dosed Kunming mouse assessed as protection against maximal electroshock-induced seizures; type: functional
Mus musculus [8] = assay: Anticonvulsant activity in ip dosed Kunming mouse assessed as minimum dose required to protect maximal electroshock-induced seizures in mouse by measuring time to peak effect; type: functional
Mus musculus [9] = assay: Anticonvulsant activity in ip dosed Kunming mouse assessed as protection against subcutaneously injected metrazol-induced seizures after 0.5 hrs; type: functional; settings: read-out: MED
Mus musculus [10] = assay: Anticonvulsant activity in Kunming mouse assessed as protection against maximal electroshock-induced seizures in mouse at 300 mg/kg, ip measured after 0.5 hrs; type: functional, organism-based
[11] = Neurotoxicity in ip dosed Kunming mouse assessed as motor impairment by measuring reduction in time spent on rotarod; type: toxicity, organism-based; settings: in vivo
[12] = Protection index, ratio of TD50 for neurotoxicity by motor impairment in Kunming mouse to ED50 for protection against maximal electroshock-induced seizures in ip dosed Kunming mouse; type: toxicity, organism-based; settings: in vivo, read-out: Ratio TD50/ED50
Mus musculus [13] = assay: Anticonvulsant activity in Kunming mouse assessed as protection against maximal electroshock-induced seizures in mouse at 300 mg/kg, ip measured after 4 hrs; type: functional, organism-based
[14] = biological target: Sodium channel protein type 1 subunit alpha (Homo sapiens) (UniProt P35498); assay: Inhibition of human Nav1.1 expressed in CHO-K1 cells assessed as use-dependent block at 10 uM at holding potential of -120 mV incubated for 30 mins prior to testing measured every 20 seconds by whole-cell patch clamp method; type: cell-based
Nav1.1 = Nav1.1 (Homo sapiens, UniProt P35498); assay: Inhibition of human Nav1.1 expressed in CHO-K1 cells assessed as state-dependent block at 10 uM at holding potential of -120 mV incubated for 30 mins prior to testing measured every 20 seconds by whole-cell patch clamp method; type: cell-based; settings: CHO-K1 cells expressing human Nav1.1

Structure (SMILES) | Activity (Mus musculus [1]) | minimal effective dose (Mus musculus [2]) [mg/kg] | Activity (Mus musculus [3]) | MLD (Mus musculus [4]) [mg/kg] | minimal effective dose (Mus musculus [5]) [mg/kg] | MLD (Mus musculus [6]) [mg/kg] | ED50 (Mus musculus [7]) [mg/kg] | Time (Mus musculus [8]) [h] | minimal effective dose (Mus musculus [9]) [mg/kg] | Activity (Mus musculus [10]) | TD50 [11] [mg/kg] | selectivity ratio [12] | Activity (Mus musculus [13]) | inhibition [14] [%] | inhibition at 0.5 h, 10 µM (Nav1.1) [%]
CC(C)(C)c1ccc(CN2CC/C(=C\c3ccc4c(c3)OCO4)C2=O)cc1 | inactive | 100 | inactive | 300 | 100 | 300 |  |  |  |  |  |  |  |  | 
CCC1(c2ccccc2)C(=O)NC(=O)NC1=O [PHENOBARBITAL] |  |  |  |  |  |  | 21.8 | 1 |  |  |  |  |  |  | 
O=C1/C(=C/c2ccc3c(c2)OCO3)CCN1Cc1c(F)cccc1F | inactive | 100 | inactive | 300 | 100 | 300 |  |  |  |  |  |  |  |  | 
Cc1ccccc1CN1CC/C(=C\c2ccc3c(c2)OCO3)C1=O | inactive | 30 |  | 300 |  | 300 |  |  | 100 | inactive |  |  |  |  | 
O=C1/C(=C/c2ccc3c(c2)OCO3)CCN1Cc1ccccc1F | inactive | 30 | inactive | 300 | 30 | 300 | 5.6 | 1 |  |  | 238 | 42.6 |  |  | 
O=C1/C(=C/c2ccc3c(c2)OCO3)CCN1Cc1ccc(F)cc1 | inactive |  | inactive | 300 | 30 | 300 |  |  |  |  |  |  | inactive |  | 
O=C1NC(=O)C(c2ccccc2)(c2ccccc2)N1 [PHENYTOIN] | inactive | 30 | inactive | 100 | 30 | 100 |  | 2 |  |  |  |  |  |  | 
O=C1/C(=C/c2ccc3c(c2)OCO3)CCN1Cc1cccc(F)c1 | inactive | 30 | inactive | 300 |  | 300 |  |  |  | inactive |  |  |  |  | 
O=C1NCC/C1=C\c1ccc2c(c1)OCO2 | inactive | 100 | inactive | 300 | 30 | 300 | 17.3 | 1 |  |  | 179 | 10.4 |  |  | 
Cc1ccc(CN2CC/C(=C\c3ccc4c(c3)OCO4)C2=O)cc1 | inactive | 30 | inactive | 300 | 30 | 300 | 6.3 | 1 |  |  | 167 | 26.5 |  |  | 
O=C1/C(=C/c2ccc3c(c2)OCO3)CCN1Cc1ccccc1Cl | inactive |  |  | 300 |  | 300 |  |  | 100 | inactive |  |  | inactive |  | 
O=C1/C(=C/c2ccc3c(c2)OCO3)CCN1Cc1cccc(C(F)(F)F)c1 | inactive | 30 | inactive | 300 | 30 | 300 | 4.3 | 1 |  |  | 161 | 37.4 |  | 99.9 | 19.5
